Source: paper PMC3483018 (Journal of Medicinal Chemistry, 2012)
Read-outs that look alike come from different tables or passages of the source.

Assays:
pKa measurement = assay type: physicochemical
hERG = hERG (Homo sapiens, UniProt Q12809); test: in vitro
[1] = assay type: in vitro ADME; details: human liver microsomes, 10 μM
[2] = assay type: in vitro ADME; details: mouse liver microsomes, 10 μM
Caco-2 assay = assay type: in vitro ADME
In vivo rat PK = details: female, Sprague-Dawley, plasma, iv, 5 mg/kg
[3] = tested on: histone H-3 phosphorylation at S10; test: PK/PD study, tumor biomarker; assay type: in vivo, mouse; details: 50 and 100 mg/kg po b.i.d. 4 days, 2 h after the final dose
[4] = tested on: MV4–11 human FLT3-ITD positive AML tumor xenografts; details: for days on which individual mice were culled (tumor volume increased by over 500%): control culled day 18
[5] = tested on: Stat5 phosphorylation at Y694; test: PK/PD study, tumor biomarker; assay type: in vivo, mouse; details: 50 and 100 mg/kg po b.i.d. 4 days, 2 h after the final dose
[6] = tested on: SW620 human colon cancer cell; details: read-out: SW620 GI50; cited from earlier work

Chain of hERG (Q12809 whole entry): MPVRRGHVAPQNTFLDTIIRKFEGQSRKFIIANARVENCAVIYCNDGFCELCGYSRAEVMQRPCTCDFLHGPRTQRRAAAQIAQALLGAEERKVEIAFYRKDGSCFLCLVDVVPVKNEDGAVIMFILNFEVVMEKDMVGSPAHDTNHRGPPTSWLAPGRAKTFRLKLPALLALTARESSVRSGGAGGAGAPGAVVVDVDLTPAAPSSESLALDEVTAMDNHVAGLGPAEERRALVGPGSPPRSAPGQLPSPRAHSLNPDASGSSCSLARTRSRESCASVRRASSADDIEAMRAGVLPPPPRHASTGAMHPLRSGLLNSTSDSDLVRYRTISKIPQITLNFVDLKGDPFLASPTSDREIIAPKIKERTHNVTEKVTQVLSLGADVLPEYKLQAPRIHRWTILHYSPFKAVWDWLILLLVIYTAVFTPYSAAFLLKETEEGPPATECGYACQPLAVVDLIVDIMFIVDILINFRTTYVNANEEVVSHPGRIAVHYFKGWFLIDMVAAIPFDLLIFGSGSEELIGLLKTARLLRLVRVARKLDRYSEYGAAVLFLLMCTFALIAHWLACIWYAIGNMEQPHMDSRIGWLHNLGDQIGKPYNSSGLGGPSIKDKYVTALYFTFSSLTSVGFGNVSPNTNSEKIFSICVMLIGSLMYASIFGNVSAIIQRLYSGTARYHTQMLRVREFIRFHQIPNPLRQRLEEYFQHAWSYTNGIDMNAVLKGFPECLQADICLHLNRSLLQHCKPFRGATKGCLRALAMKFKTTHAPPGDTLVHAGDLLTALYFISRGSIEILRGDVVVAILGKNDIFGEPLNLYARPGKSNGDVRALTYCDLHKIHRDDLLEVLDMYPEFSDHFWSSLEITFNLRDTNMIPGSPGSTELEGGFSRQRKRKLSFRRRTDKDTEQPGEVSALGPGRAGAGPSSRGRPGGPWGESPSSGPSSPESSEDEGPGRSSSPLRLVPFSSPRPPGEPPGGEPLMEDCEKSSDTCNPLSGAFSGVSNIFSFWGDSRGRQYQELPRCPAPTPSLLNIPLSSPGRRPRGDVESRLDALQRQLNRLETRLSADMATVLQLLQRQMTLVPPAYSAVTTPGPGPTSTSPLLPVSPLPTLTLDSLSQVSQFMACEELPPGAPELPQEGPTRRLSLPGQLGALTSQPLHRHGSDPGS

COc1ccc(-c2nc3c(N4CCN(Cc5cc(C)on5)CC4)c(Br)cnc3[nH]2)cc1 [6-bromo-2-(4-methoxyphenyl)-7-[4-(5-methyl-isoxazol-3-ylmethyl)-piperazin-1-yl]-3H-imidazo[4,5-b]pyridine]
pKa (pKa measurement; acidic pKa of the imidazopyridine N3 proton): 9.51
pKa (pKa measurement; pKa of the piperazine nitrogen bearing the 5-methylisoxazol-3-yl substituent): 5.39

Cc1cc(CN2CCN(c3c(Br)cnc4nc(-c5cncn5C)[nH]c34)CC2)no1 [Compound 21a, 3-((4-(6-Bromo-2-(1-methyl-1H-imidazol-5-yl)-3H-imidazo[4,5-b]pyridin-7-yl)piperazin-1-yl)methyl)-5-methylisoxazole]
inhibition at 10 µM (hERG): 94%

Cc1cc(CN2CCN(c3c(Cl)cnc4nc(-c5cnn(C)c5)[nH]c34)CC2)no1 [Compound 21i, 3-((4-(6-Chloro-2-(1-methyl-1H-pyrazol-4-yl)-3H-imidazo[4,5-b]pyridin-7-yl)piperazin-1-yl)methyl)-5-methylisoxazole]
inhibition at 10 µM (hERG): 67%
HLM: Percentage of parent compound metabolized after a 30 min incubation [1]: 10%
MLM: Percentage of parent compound metabolized after a 30 min incubation [2]: 20%

Cc1nn(C)cc1-c1nc2c(N3CCN(Cc4ccc(Cl)cc4)CC3)c(Cl)cnc2[nH]1 [Compound 27e, 6-Chloro-7-(4-(4-chlorobenzyl)piperazin-1-yl)-2-(1,3-dimethyl-1H-pyrazol-4-yl)-3H-imidazo[4,5-b]pyridine]
Caco-2 efflux (Caco-2 assay): no efflux
Vd (In vivo rat PK): 0.369 L
inhibition of histone H-3 phosphorylation in tumor [3]: clear inhibition
days on which individual mice were culled (tumor volume increased by over 500%) ([4]; 50 mg/kg): days 28 and 31
tumors when therapy discontinued ([4]; 100 mg/kg po b.i.d., after 11 days): undetectable
days on which individual mice were culled (tumor volume increased by over 500%) ([4]; 100 mg/kg): days 46 and 56
toxicity as defined by body weight loss and general condition ([4]; 50 and 100 mg/kg po): no observed toxicity
inhibition of Stat5 phosphorylation in tumor [5]: clear inhibition

Cc1cc(CN2CCN(c3c(Br)cnc4nc(-c5ccc(N6CCN(C)CC6)cc5)[nH]c34)CC2)no1 [Compound 6]
GI50 [6]: 300 nM
